# Laboratory results from publication PMC7252619 (PLoS ONE, 2020).
# pIC50: −log10 of the molar value. Like-named read-outs stand apart in the source and are kept apart here.
# Assays:
# [1] = biological target: T1, DAPK1 (Homo sapiens, UniProt P53355); assay: Kinase activity test (ReactionBiology), % enzyme activity relative to DMSO; format: biochemical; details: DAPK1
# T1 construct: purchased ReactionBiology
# [2] = tested on: human PBMCs (responder cells) with RPMI1788 stimulator cells; assay: Mixed Lymphocyte Reaction (MLR, T cell assay), 3H-thymidine incorporation; format: cell-based; details: Homo sapiens, RPMI-1788; mean of 4 independent measures; read-out: T-cell efficacy, MLR IC 50 (µM) Mean
# Method: In order to test the efficacy and selectivity of the hit compounds on B-cells, 4 assays were performed: B-cell assay, Mixed Lymphocyte Reaction (MLR), WST-1 assay on RPMI1788 cells (B-cell line) and cytotoxicity WST-1 assay on Jurkat cells (T-cell line). Compounds were prepared as 10 mM stock solutions in dimethylsulfoxide (DMSO)and were tested at 50-10-1-0.1-0.01 and 0.001 μM in the 4 assays.
# Blood samples of healthy volunteers were collected at the Red Cross of Mechelen, Belgium. Each donor consents to the use of their blood for research purposes. […] The human B cell line RPMI1788 (American Type Culture Collection, USA) and the human T cell line Jurkat (European Collection of Cell Cultures, ECACC, England) were maintained in RPMI1640 culture medium (BioWhittaker®, Lonza, Verviers, Belgium) containing 10% foetal calf serum (FCS, HyClone® Thermo Scientific, United Kingdom) and 5 μg/mL gentamicin sulphate (BioWhittaker®, Lonza, Verviers, Belgium) at 37°C and 5% CO2.
# MLR assay (T cell assay): Freshly isolated human PBMCs (responder cells) were resuspended in RPMI1640 medium containing 10% FCS and 5nμg/mL gentamicin sulphate. RPMI1788 cells (stimulator cells) were inactivated by treatment with mitomycin C (Kyowa®, Takeda Belgium, Brussels, Belgium) for 20 min at 37°C, washed and finally suspended in culture medium. An amount of 100 μL of each cell suspension was mixed with 20 μL of diluted compound. The mixed cells were cultured at 37°C for 6 days in 5% CO2. DNA synthesis was assayed by the addition of 10 μCi (methyl-3H) thymidine (Perkin Elmer, Zaventem, Belgium) per well during the last 18 h in culture. Thereafter, the cells were harvested on glass filter paper and the counts per minute determined in a liquid scintillation counter (TopCount, Perkin Elmer, Zaventem, Belgium).
# [3] = biological target: T2, EPHB4 (Homo sapiens, UniProt P54760); assay: Kinase activity test (ReactionBiology), % enzyme activity relative to DMSO; format: biochemical; details: EPHB4;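 also: EPHB4 was one of ten selected kinases in the screening panel, with enzyme activity expressed as a percentage of DMSO controls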
# T2 construct: purchased ReactionBiology
# T2 sequence (P54760 16-987): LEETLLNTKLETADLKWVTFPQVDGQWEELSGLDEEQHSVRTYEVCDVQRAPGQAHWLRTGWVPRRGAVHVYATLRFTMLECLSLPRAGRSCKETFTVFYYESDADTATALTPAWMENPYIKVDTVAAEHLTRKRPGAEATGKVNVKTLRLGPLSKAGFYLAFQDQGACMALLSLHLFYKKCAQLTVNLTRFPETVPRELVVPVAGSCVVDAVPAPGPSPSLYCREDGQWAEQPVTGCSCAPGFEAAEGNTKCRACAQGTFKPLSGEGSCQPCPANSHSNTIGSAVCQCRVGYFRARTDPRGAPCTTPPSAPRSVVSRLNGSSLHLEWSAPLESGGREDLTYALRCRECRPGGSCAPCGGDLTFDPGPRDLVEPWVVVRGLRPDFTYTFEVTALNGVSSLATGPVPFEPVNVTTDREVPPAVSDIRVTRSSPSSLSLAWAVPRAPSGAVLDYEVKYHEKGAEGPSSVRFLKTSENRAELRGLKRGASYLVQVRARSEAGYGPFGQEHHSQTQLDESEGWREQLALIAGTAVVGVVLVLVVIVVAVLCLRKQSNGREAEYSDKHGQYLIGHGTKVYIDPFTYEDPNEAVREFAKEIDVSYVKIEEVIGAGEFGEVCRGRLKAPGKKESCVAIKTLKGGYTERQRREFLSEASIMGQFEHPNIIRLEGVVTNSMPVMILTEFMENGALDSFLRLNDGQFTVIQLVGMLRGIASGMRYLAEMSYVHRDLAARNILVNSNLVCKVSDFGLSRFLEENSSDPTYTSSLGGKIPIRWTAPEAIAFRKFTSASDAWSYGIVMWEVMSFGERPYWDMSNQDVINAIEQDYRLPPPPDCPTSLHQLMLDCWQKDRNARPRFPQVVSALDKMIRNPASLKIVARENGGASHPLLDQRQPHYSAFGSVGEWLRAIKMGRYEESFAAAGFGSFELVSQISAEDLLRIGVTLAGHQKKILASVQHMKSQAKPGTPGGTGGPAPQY
# [4] = biological target: T3, MST-4 (Homo sapiens, UniProt Q9P289); assay: as above; format: biochemical; details: MST4;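 also: marketed FDA-approved drugs screened at 10 µM and 1 µM against a ten-kinase panel, remaining activity given as percent of DMSO controls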
# T3 construct: purchased ReactionBiology
# [5] = WST-1 cytotoxicity assay on RPMI1788 cells (B-cell line); format: cell-based, human; details: human, RPMI1788 cells (B-cell line), mean of 4 independent measures, read-out: Cytotoxicity, WST-1 RPMI 1788 IC 50 (µM) Mean
# [6] = tested on: human CD19+ B cells; assay: B-cell assay: IgG production of ODN2006-stimulated primary B cells (AlphaLISA); format: cell-based; details: Homo sapiens, B-cell, 168 h; IgG production, ODN2006 0.1 μM, 7 days; mean of 4 independent experiments; read-out: B-cell IC50
# Method: Compounds were prepared as 10 mM stock solutions in dimethylsulfoxide (DMSO)and were tested at 50-10-1-0.1-0.01 and 0.001 μM in the 4 assays.
# Blood samples of healthy volunteers were collected at the Red Cross of Mechelen, Belgium.
# Highly purified naive peripheral human B cells were separated from fresh human PBMCs on magnetic columns by positive selection using CD19 magnetic beads according to the manufacturer’s instructions (MACS Miltenyi Biotech, Leiden, The Netherlands). […] Freshly isolated human CD19+ B cells were then plated at 25 000 cells per well in a 384-well plate (Perkin Elmer, Zaventem, Belgium) in 55 μL in DMEM medium containing 10% FCS and 5 μg/mL gentamicin sulphate. After 7 days of stimulation with 0.1 μM ODN2006 (InvivoGen, Toulouse, France), supernatant was taken for analysis of IgG using the AlphaLISA human IgG kit according to the manufacturer’s instructions (Perkin Elmer, Zaventem, Belgium).
# [7] = biological target: T4, NEK2 (Homo sapiens, UniProt P51955); assay: Kinase activity test (ReactionBiology), % enzyme activity relative to DMSO; format: biochemical; details: NEK2;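 also: FDA-approved drugs chosen by structure-based repositioning, each screened at 10 or 1 µM for kinase activity, expressed as percent of DMSO controls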
# T4 construct: purchased ReactionBiology
# T4 sequence (P51955 1-445): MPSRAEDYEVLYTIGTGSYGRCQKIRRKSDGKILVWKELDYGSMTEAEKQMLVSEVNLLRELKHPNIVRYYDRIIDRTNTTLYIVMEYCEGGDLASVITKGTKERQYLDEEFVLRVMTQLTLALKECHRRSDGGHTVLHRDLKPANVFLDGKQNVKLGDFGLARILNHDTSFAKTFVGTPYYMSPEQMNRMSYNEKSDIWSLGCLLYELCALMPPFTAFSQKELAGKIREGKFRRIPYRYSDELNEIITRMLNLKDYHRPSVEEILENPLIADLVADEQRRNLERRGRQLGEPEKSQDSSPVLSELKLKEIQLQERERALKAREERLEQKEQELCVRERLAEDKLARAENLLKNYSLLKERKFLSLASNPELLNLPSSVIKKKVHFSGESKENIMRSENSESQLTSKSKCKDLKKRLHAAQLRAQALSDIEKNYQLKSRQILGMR
# [8] = biological target: T5, CK1d (Homo sapiens, UniProt P48730); assay: as above; format: biochemical; details: CK1d
# T5 construct: purchased ReactionBiology
# [9] = WST-1 cytotoxicity assay on Jurkat cells (T-cell line); format: cell-based, human; details: human, Jurkat cells (T-cell line), mean of 4 independent measures, read-out: Cytotoxicity, WST-1 Jurkat IC 50 (µM) Mean
# [10] = biological target: VEGFR2 (Homo sapiens, UniProt P35968); assay: Kinase activity test (ReactionBiology), % enzyme activity relative to DMSO; format: biochemical; parameters: purchased ReactionBiology; details: VEGFR2;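 also: VEGFR2 was one member of a ten-kinase screening panel testing marketed FDA-approved drugs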
# [11] = Average, read-out: % Enzyme Activity (relative to DMSO controls), Average
# [12] = replicate Data 1, read-out: % Enzyme Activity (relative to DMSO controls), Data 1
# [13] = replicate Data 2, read-out: % Enzyme Activity (relative to DMSO controls), Data 2
# [14] = 1 uM, Average, read-out: % Enzyme Activity (relative to DMSO controls), Average
# [15] = 1 uM, replicate Data 1, read-out: % Enzyme Activity (relative to DMSO controls), Data 1
# [16] = 1 uM, replicate Data 2, read-out: % Enzyme Activity (relative to DMSO controls), Data 2
# [17] = 10 uM, Average, read-out: % Enzyme Activity (relative to DMSO controls), Average
# [18] = 10 uM, replicate Data 1, read-out: % Enzyme Activity (relative to DMSO controls), Data 1
# [19] = 10 uM, replicate Data 2, read-out: % Enzyme Activity (relative to DMSO controls), Data 2
# [20] = compound 1μM, relative to DMSO controls, read-out: % Enzyme activity at 1μM
# [21] = compound 10μM, relative to DMSO controls, read-out: % Enzyme activity at 10μM
# VEGFR2, sequence (P35968 20-1356): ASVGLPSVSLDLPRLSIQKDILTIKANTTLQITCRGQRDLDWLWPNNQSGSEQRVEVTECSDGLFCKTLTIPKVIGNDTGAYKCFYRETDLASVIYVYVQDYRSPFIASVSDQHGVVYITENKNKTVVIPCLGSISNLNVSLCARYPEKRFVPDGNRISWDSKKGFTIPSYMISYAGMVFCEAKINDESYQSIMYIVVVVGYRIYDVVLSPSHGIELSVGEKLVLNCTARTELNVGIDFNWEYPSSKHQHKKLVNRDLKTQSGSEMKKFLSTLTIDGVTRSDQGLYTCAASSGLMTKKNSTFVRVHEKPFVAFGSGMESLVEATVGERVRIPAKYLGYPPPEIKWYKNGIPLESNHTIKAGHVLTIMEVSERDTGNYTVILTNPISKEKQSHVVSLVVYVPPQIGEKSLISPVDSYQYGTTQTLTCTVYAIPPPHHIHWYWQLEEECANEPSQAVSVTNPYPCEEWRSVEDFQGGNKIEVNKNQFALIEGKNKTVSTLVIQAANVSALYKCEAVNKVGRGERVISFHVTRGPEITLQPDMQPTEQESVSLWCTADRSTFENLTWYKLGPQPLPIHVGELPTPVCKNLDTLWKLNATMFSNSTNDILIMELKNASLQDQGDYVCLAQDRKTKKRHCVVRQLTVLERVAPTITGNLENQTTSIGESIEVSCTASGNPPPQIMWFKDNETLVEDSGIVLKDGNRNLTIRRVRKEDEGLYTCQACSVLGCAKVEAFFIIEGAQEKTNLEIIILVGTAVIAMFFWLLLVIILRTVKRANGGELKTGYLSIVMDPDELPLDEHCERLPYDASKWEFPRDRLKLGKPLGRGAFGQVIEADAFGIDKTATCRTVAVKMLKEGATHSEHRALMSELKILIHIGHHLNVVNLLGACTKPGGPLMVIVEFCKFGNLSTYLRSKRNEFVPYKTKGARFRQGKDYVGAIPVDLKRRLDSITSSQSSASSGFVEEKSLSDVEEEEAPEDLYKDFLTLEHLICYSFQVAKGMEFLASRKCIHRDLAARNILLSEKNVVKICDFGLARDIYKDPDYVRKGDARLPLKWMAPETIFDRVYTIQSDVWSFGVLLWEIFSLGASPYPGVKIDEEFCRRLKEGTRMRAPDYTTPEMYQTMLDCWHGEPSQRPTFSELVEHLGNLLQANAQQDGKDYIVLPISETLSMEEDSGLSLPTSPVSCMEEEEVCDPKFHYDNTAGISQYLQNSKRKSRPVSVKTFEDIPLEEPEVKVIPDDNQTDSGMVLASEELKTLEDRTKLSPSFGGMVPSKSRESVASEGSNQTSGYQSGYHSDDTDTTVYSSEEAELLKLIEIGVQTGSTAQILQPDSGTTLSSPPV
# T1 sequence (P53355 whole entry): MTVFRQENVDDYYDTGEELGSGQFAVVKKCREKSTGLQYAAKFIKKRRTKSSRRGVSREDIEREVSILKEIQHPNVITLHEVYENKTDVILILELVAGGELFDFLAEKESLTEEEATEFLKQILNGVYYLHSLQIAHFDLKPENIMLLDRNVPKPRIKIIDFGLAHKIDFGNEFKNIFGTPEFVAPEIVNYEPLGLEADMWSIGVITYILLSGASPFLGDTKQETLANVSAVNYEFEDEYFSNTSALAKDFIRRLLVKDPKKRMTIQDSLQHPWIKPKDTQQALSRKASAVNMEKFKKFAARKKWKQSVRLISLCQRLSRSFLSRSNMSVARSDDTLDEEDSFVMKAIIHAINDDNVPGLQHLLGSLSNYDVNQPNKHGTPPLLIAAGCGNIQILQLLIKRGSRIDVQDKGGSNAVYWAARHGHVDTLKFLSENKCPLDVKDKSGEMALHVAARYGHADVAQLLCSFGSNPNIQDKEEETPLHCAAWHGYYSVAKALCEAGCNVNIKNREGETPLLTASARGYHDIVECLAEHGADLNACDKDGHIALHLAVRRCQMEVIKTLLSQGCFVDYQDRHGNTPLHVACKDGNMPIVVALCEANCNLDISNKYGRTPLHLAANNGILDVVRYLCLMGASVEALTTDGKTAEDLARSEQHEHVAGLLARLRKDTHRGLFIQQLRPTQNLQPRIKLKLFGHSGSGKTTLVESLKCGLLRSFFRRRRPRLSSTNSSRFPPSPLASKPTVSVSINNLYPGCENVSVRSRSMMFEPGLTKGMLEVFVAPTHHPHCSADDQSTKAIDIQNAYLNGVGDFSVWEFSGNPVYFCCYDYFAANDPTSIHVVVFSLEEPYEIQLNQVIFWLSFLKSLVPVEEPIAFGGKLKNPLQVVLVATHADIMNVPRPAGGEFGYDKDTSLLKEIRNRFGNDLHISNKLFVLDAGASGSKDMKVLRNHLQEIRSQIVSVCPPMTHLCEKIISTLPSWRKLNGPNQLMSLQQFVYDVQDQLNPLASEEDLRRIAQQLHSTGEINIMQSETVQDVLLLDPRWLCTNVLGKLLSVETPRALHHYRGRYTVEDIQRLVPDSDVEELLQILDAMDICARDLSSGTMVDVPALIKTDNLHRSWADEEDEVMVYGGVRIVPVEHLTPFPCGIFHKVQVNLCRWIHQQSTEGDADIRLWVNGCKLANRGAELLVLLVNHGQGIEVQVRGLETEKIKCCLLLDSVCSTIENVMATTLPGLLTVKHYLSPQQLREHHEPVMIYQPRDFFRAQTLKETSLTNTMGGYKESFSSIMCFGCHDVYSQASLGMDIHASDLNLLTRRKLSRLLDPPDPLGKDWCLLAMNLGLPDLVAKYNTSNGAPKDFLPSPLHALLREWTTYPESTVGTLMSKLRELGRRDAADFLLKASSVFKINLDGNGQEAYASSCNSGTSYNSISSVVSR
# T3 sequence (Q9P289 whole entry): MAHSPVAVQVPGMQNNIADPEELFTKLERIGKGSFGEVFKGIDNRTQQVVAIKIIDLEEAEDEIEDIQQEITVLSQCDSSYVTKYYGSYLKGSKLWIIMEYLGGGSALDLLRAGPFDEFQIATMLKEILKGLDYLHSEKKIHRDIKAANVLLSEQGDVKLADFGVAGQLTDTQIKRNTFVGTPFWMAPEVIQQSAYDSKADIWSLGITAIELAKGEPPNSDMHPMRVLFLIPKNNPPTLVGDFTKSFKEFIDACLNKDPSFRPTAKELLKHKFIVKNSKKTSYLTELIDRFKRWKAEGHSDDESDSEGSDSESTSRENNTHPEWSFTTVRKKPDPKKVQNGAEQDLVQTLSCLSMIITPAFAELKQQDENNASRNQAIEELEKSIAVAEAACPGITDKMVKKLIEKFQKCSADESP
# T5 sequence (P48730 whole entry): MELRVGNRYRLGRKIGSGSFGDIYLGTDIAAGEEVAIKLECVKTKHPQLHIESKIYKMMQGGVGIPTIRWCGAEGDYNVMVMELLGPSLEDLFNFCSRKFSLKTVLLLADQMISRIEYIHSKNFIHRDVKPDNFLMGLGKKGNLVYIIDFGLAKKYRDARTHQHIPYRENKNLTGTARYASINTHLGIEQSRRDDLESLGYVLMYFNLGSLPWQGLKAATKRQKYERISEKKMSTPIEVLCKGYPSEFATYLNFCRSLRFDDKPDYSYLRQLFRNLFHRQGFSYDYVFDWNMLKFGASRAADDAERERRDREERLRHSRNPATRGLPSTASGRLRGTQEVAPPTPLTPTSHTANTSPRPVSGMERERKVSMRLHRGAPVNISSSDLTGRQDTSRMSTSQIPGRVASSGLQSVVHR
structure (smiles),measurement,setting,value
"Nc1ncnc2c1ncn2[C@@H]1O[C@H](CO)[C@@H](O)[C@H]1O [Adenosine, reference compound]",remaining activity at 1 µM,[1]; [11],99.3%
same,remaining activity at 1 µM,[1]; [12],103%
same,remaining activity at 1 µM,[1]; [13],95.9%
same,remaining activity at 10 µM,[1]; [11],81.1%
same,remaining activity at 10 µM,[1]; [12],80.8%
same,remaining activity at 10 µM,[1]; [13],81.4%
same,IC50,[2],> 50 µM
same,remaining activity at 1 µM,[3]; [11],101%
same,remaining activity at 1 µM,[3]; [12],100%
same,remaining activity at 1 µM,[3]; [13],102%
same,remaining activity at 10 µM,[3]; [11],85.4%
same,remaining activity at 10 µM,[3]; [12],84.1%
same,remaining activity at 10 µM,[3]; [13],86.8%
same,remaining activity at 1 µM,[4]; [11],91.7%
same,remaining activity at 1 µM,[4]; [12],92.1%
same,remaining activity at 1 µM,[4]; [13],91.2%
same,remaining activity at 10 µM,[4]; [11],78.5%
same,remaining activity at 10 µM,[4]; [12],69.9%
same,remaining activity at 10 µM,[4]; [13],87.1%
same,IC50 at 48 h,[5],> 50 µM
same,pIC50,[6],< 4.30
same,remaining activity at 1 µM,[7]; [14],79.9%
same,remaining activity at 1 µM,[7]; [15],73.6%
same,remaining activity at 1 µM,[7]; [16],86.1%
same,remaining activity at 10 µM,[7]; [17],71.7%
same,remaining activity at 10 µM,[7]; [18],77.2%
same,remaining activity at 10 µM,[7]; [19],66.2%
same,remaining activity at 1 µM,[7]; [20],96.1%
same,remaining activity at 10 µM,[7]; [21],59%
same,remaining activity at 1 µM,[8]; [14],87.7%
same,remaining activity at 1 µM,[8]; [15],86.5%
same,remaining activity at 1 µM,[8]; [16],88.9%
same,remaining activity at 10 µM,[8]; [17],50.2%
same,remaining activity at 10 µM,[8]; [18],51.1%
same,remaining activity at 10 µM,[8]; [19],49.4%
same,remaining activity at 1 µM,[8]; [20],87.7%
same,remaining activity at 10 µM,[8]; [21],50.2%
same,IC50 at 48 h,[9],> 50 µM
same,remaining activity at 1 µM,[10]; [11],111%
same,remaining activity at 1 µM,[10]; [12],111%
same,remaining activity at 1 µM,[10]; [13],111%
same,remaining activity at 10 µM,[10]; [11],98.3%
same,remaining activity at 10 µM,[10]; [12],98.4%
same,remaining activity at 10 µM,[10]; [13],98.2%
